For data set [1] the following is noted: DTA.
A short description of data set [2]: Molar enthalpy of transition or fusion.

Numbers after ± are expanded uncertainties.

On to `CCCCCCCCCCCC(=O)NCCc1ccc(O)cc1` [N-[2-(4-hydroxyphenyl)ethyl]dodecanamide], for which the Normal melting temperature in data set [1] (Crystal) was 91.39 ± 2.1 °C. In addition, in data set [2] (Crystal), the “Molar enthalpy of transition or fusion” value turned out to be 6.69 ± 0.382 kcal/mol.
With `CCCCCCCCCCCCCCCC(=O)NCCc1ccc(O)cc1` [N-[2-(4-hydroxyphenyl)ethyl]hexadecanamide], the Normal melting temperature in data set [1] (Crystal 1) came to 103.76 ± 2.1 °C. Further, the “Molar enthalpy of transition or fusion” value in data set [2] (Crystal 1) came to 11.8 ± 0.645 kcal/mol.
The like results for `CCCCCCCCCCCCCC(=O)NCCc1ccc(O)cc1` [N-[2-(4-hydroxyphenyl)ethyl]tetradecanamide] were, in that order, 98.1 ± 2.1 °C and 10.4 ± 0.574 kcal/mol.
On to `CCCCCCCCCC(=O)NCCc1ccc(O)cc1` [N-[2-(4-hydroxyphenyl)ethyl]decanamide], for which the Normal melting temperature in data set [1] (Crystal) was 81.47 ± 2.1 °C. Moreover, the “Molar enthalpy of transition or fusion” value in data set [2] (Crystal) came out at 5.08 ± 0.311 kcal/mol.

The values are drawn from the NIST ThermoML archive (doi:10.1016/j.tca.2014.03.030).
